From ChEMBL document CHEMBL1157539, “Thousands of chemical starting points for antimalarial lead identification” (Nature, 2010)

System: Plasmodium falciparum
Assay: GSK_TCMDC: Inhibition of Plasmodium falciparum 3D7 in whole erythrocytes, using parasite LDH activity as an index of growth.
Format: functional, organism-based
Settings: Plasmodium falciparum, 3D7

Structure (SMILES) | XC50 [nM]
Cc1ccc(C2CCN(CCCCNC(=O)c3ccc(NC(=O)c4ccc(Cl)cc4)cc3)CC2)c(OCC(F)(F)F)c1 | 284
O=[N+]([O-])c1ccc(-c2nc3cc(C4=NC5CCCCC5N4)ccc3[nH]2)cc1 (stereo not given) | 691
O=C(c1cccc(-c2ccc(-c3nc4cc(F)ccc4[nH]3)s2)c1)N1CCCCC1CN1CCC(O)C1 (stereo not given) | 715
O=C(Nc1ccc(C(=O)Oc2ccc(-c3ccccc3)cc2)cc1)N[C@@H](Cc1ccc(O)cc1)C(=O)NC1CCN(Cc2ccc(O)cc2)C1 (stereo not given in full) | 803
N=C(N)Nc1cccc(NC(=O)Nc2cccc(NC(=N)N)c2)c1 | 258
CCNC(=O)c1ccc2c(c1)c(C)c(C)n2Cc1ccc(F)cc1 | 767
CCN(CCCN1CCCCC1)c1cc(C)nc(Nc2cc(F)cc(F)c2)n1 | 570
O=C(NCCCc1ccccc1)c1ccc(O)c(-c2cc(Cl)cc(Cl)c2)c1 | 567
O=C(NCC1CCC(CNCCc2ccccc2)CC1)Nc1ccc(Cl)c(Cl)c1 (stereo not given) | 745
COc1ccc(NC(=O)NC2CCN(CCCCCNC(=O)/C=C/c3ccc(Cl)c(Cl)c3)CC2)cc1 | 1010
COc1ccc2ncc(Cl)c([C@@H](O)CN3CCC(NCc4cc5c(cn4)OCCO5)CC3)c2c1 | 59.5
COc1ccc(NC(=O)/C=C/c2ccccc2Cl)cc1OCCN1CCC(NCc2ccccc2)CC1 | 352
Cc1[nH]c2ccccc2c1C1=CCN(CCCCC2(C)C(=O)Nc3cccc(F)c32)CC1 (stereo not given) | 364
COc1ccccc1C1CCN(CCCCNC(=O)c2ccc(/C=C/c3cc(Cl)cc(Cl)c3)cc2)CC1 | 718
O=C(NC1CCC(CN2CCC(c3c[nH]c4ccccc34)CC2)CC1)c1cc(-c2ccccc2Cl)oc1C(F)(F)F (stereo not given) | 771
COc1ccc(Nc2nccc(N3CCC(NC(=O)Nc4cccc(C(C)=O)c4)C3)n2)cc1 (stereo not given) | 821
Cn1nc(-c2ccc(CN[C@@H]3CCc4ccc(O)cc43)cc2)c2cnc(NCCCN3CCCC3)nc21 | 797
Cc1ccc(CC(C)NCC(O)c2cccc(C(F)(F)F)c2)cc1F (stereo not given) | 916
O=C(NC1CCN(CC2(c3ccccc3F)CCCC2)CC1)c1cc[nH]n1 | 997
CC1(C)CC(=O)c2c(O)cc(OCc3ccncc3)cc2O1 | 1040
CCCCc1ccc(-c2ccc(-c3c(C)[nH]c(C)c(Br)c3=O)cn2)cc1 | 57.8
CCOc1cc(C(=O)N[C@@H](Cc2ccccc2)[C@H](O)CNCc2cccc(OC)c2)cc(N2CCCCS2(=O)=O)c1 | 721
CC(C)(C)SCC(O)Cn1c2ccc(Br)cc2c2cc(Br)ccc21 (stereo not given) | 1000
CNC(=O)c1cc(S(=O)(=O)Nc2ccc(OC)cc2)cs1 | 1130

Structure (SMILES) | XC50 [nM]
CCn1cnc2c(Nc3cccc([N+](=O)[O-])c3)nc(N3CCC(N4CCCCC4)CC3)nc21 | 954
COc1ccc(S(=O)(=O)N2CCC(NS(=O)(=O)c3ccc(F)cc3)CC2)cc1 | 1330
CN1CCN(c2ccc3[nH]c(-c4ccc5[nH]c(-c6ccc([N+](=O)[O-])c(N)c6)nc5c4)nc3c2)CC1 | 105
CCCN(Cc1ccc(OCC)cc1)Cc1cc(=O)c2cc(Cl)ccc2[nH]1 | 1260
c1ccc2c(NCCCCCCCCCNc3c4ccccc4nc4ccccc34)c3ccccc3nc2c1 | 298
Clc1cccc(CNC2CCN(CC3CCCCC3)CC2)c1 | 912
Cc1ccc2cc(C3NC(=O)c4ccccc4N3)c(Cl)nc2c1 (stereo not given) | 945
COc1ccc(CN2CCN(Cc3cc(Cl)ccc3O)CC2CCO)c(C)c1C (stereo not given) | 1490
CN(C)Cc1cccc(-c2ccc(NC(=O)c3ccc4c(=O)n(C5CCCCC5)cnc4c3)cc2)c1 | 744
CN1CCN(c2cccc(NC(=O)c3ccc(-c4ccc(C#N)cc4)cc3)c2)CC1 | 1260
O=C(NC1CCCC1)c1ccc(N2CCC(NCc3cc4cc(Cl)ccc4[nH]3)CC2)cc1 | 1220
CC1(CCCCN2CCC(c3c[nH]c4cnccc34)CC2)C(=O)Nc2cccc(Cl)c21 (stereo not given) | 868
Cc1cc(C)c(NC(=O)NC2CCN(CCCCCNC(=O)/C=C/c3ccc(Cl)c(Cl)c3)C2)c(C)c1 (stereo not given) | 186
CC(=O)Oc1c(Cl)c(C)nc(C)c1-c1ccc(Oc2ccc(Cl)cc2)cc1 | 31.5
O=C(Nc1cccc(CN2CCCN(Cc3ccc(O)cc3)CC2)c1)c1cccc(C(F)(F)F)c1 | 314
O=C(NC1CCN(CC2(c3ccc(Cl)cc3)CCCCC2)CC1)c1cc[nH]n1 | 84
Cc1cc(=O)[nH]c(-n2nc(C)cc2NC(=O)CC(c2ccccc2)c2ccccc2)n1 | 1100
Clc1ccc(Nc2nc(Nc3ccc(Cl)c(Cl)c3)nc(Sc3nc4ccccc4[nH]3)n2)cc1Cl | 490
Cc1cccc2nc(-c3cccc(-c4ccc(NC(=O)C(=O)c5cccn5C)cc4)c3)[nH]c12 | 375
COc1cccc2cc(C(=O)N[C@@H](CC(C)C)C(=O)N[C@H](C=NN3CCOC3=O)CC(C)C)oc12 | 741
Cn1nc(-c2ccc(NC(=O)Nc3ccc4ccccc4c3)c(F)c2)c2cnc(NCCN3CCOCC3)nc21 | 1020
CC(C)(C)C1CCC(C(=O)c2ccc3ccccc3c2O)CC1 (stereo not given) | 751
CCCCCC(=O)NCC(NCCCNc1cc(=O)c2ccccc2[nH]1)c1cc(Br)cc(Br)c1 (stereo not given) | 652
CC(CN(C)C)C(=O)Nc1ccc(-c2csc(-c3nc4ccccc4[nH]3)c2)cc1 (stereo not given) | 1320

Structure (SMILES) | XC50 [nM]
Cc1noc(=O)c2ccc(NC(=O)C(O)(CSc3ccccc3)CC(C)C)cc12 (stereo not given) | 722
COc1ccc(-c2nc(NC(=O)CS(=O)(=O)c3ccccc3)sc2C)cc1 | 596
CCCCN(CCCC)CCCN(CCCN(CCCC)CCCC)c1cc(C)nc(Nc2ccc3cc(Br)ccc3c2)n1 | 320
Oc1ccc2[nH]cc(C3CCN(CCCNCc4ccc(-c5ccccc5)cc4)CC3)c2c1 | 725
Cc1c(NC(=O)COc2ccc(Cl)cc2C(=O)c2cc(F)cc(C(F)(F)F)c2)ccc2ncsc12 | 1020
CCCCCCN(CCCCCC)CC(O)c1c(OC)ccc2ccccc12 (stereo not given) | 567
COc1ccc(CNCc2ccsc2)cc1-c1ccc(OC)c(S(=O)(=O)NCCN2CCCC2)c1 | 917
Cn1ccnc1CNC(=O)c1ccc(-c2ccc(-c3nc4cc(C(F)(F)F)ccc4[nH]3)s2)cc1 | 698
O=C(NCc1cccs1)[C@H](Cc1ccccc1)Nc1ccnc(NCCc2ccc(F)cc2)n1 | 1450
CCn1c(-c2nonc2N)nc2c(-c3cc4ccccc4s3)ncc(C(=O)N3CCC(N)C3)c21 (stereo not given) | 871
COc1ccc(S(=O)(=O)N(CCCN2CCN(C)CC2)Cc2csc(-c3ccc(CNCc4ccccc4)cc3)n2)cc1 | 949
c1cc(-c2ccc(CNCc3ccsc3)cc2)cc(-c2nc3ccccc3[nH]2)c1 | 156
COc1ccc(C(=O)CCC(=O)N(Cc2ccc(-c3ccc(CNCCc4ccc(S(C)(=O)=O)cc4)cn3)cc2)C(C)CN(C)C)cc1F (stereo not given) | 650
c1ccc(-c2nc3ccccc3[nH]2)c(Nc2ccnc3cc(-c4nccs4)ccc23)c1 | 740
Cc1cc(O)c(-c2ccc(Sc3ccc(Cl)cc3)cc2)c(C)n1 | 969
Cc1ccc(NC(=O)NC2CCN(CCCCCNC(=O)C3CC3c3ccc(Cl)c(Cl)c3)CC2)cc1 (stereo not given) | 540
O=C(/C=C/c1ccc(Cl)c(Cl)c1)NCCCCCN1CCCN(C(=S)Nc2cccc(Cl)c2)CC1 | 1050
COc1ccc2c(=O)c3ccc(OC)cc3[nH]c2c1 | 810
CN1CCC(C(=O)Nc2ccc(-c3cccc(-c4nc5cc(F)ccc5[nH]4)c3)cc2)CC1 | 792
CC1(C)NC(N)=NC(=N)N1OCCCSc1ccccc1 | 3.2
CS(=O)(=O)c1ccc(-c2cncc(Cl)n2)cc1 | 770
CC(NC(=O)c1ccc(O)c(-c2ccc(Cl)c(Cl)c2)c1)C(=O)NC1CCCCC1 (stereo not given) | 844
